Holding throughout (test): NCI tumour cell line growth inhibition, 48 h
The subject of test [1] is COLO 205.
In test [2] the test system is MDA-MB-231.
In test [3] the test system is SF-539.
Test [4] concerns Malme-3M.
For test [5], the system named is ACHN.
Test [6] relates to MDA-MB-435.
In test [7] the test system is EKVX.
Test [8] has as its system RXF 393.
Test [9] relates to HCC 2998.
Test [10] concerns SK-MEL-5.
In test [11] the test system is RPMI-8226.
For test [12], the system named is SF-295.
Test [13] deals with SK-OV-3.
Test [14] deals with Hs-578T.
The test system of test [15] is K562.
Test [16] relates to HCT-15.
Test [17] relates to NCI-H23.
The subject of test [18] is IGROV-1.
The subject of test [19] is KM12.
In test [20] the test system is SR.

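The compound was tested at five concentrations on cells cultured in 96-well plates, with a 48-hour exposure period. Here, GI50 denotes the concentration required for 50% inhibition of growth.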 Calls of active or inactive are those of the source. Rule as the data show it: active = GI50 up to about 1.1 µM and inactive = higher. Where only a bound is given, the exact number is not on record here.

As for `Cc1[nH]nc(C(=O)N/N=C/c2cccs2)c1/N=N\N(C)C`, the GI50 is 11.9 µM (inactive) in test [1]; 23.1 µM (inactive) in [2]; 13.3 µM (inactive) in test [3]; 21.4 µM (inactive) in test [4]; 2.96 µM (inactive) in [5]; 23.9 µM (inactive) in [6]. Also, the GI50 in test [7] is 39.4 µM (inactive); in [8], 14.6 µM (inactive); in [9] it was 5.06 µM (inactive); in [10], 19.6 µM (inactive); in test [11], 18.3 µM (inactive); in test [12] it was 15.2 µM (inactive). Besides, the GI50 in test [13] is 19.8 µM (inactive); in test [14], 34.5 µM (inactive); in test [15], 3.9 µM (inactive); in [16], 13.7 µM; in test [17] it was 12.6 µM (inactive); in test [18], 11.1 µM (inactive). For the same compound, the GI50 in [19] was 24.1 µM (inactive).

For the compound `O=c1[nH]nc(Cc2ccccc2)n1Nc1ccccc1`, the GI50 in test [1], in [2], in test [3], in test [4], in test [5] and in test [6] was > 100 µM (inactive) throughout. Moreover, the GI50 in test [7], in test [9], in test [10], in test [20], in test [11] and in test [12] was > 100 µM (inactive) throughout. The GI50 in test [14] was > 100 µM (inactive); in test [15], > 100 µM (inactive); in [16], over 100 µM; in test [17], > 100 µM (inactive); in [18] it was > 100 µM (inactive); in test [19] it was > 100 µM (inactive).

`CCOC(=O)CN1CC(C2=C(O)CN(CC(=O)OCC)C2=O)=CC1=O`: the GI50 in test [1], in [2], in [3], in test [4], in test [5] and in [6] was > 100 µM (inactive) each time. In addition, the GI50 in test [7], in [9], in test [10], in test [20], in [11] and in [12] was > 100 µM (inactive) throughout. Besides, the GI50 is > 100 µM (inactive) in test [13]; > 100 µM (inactive) in [14]; > 100 µM (inactive) in test [15]; over 100 µM in test [16]; > 100 µM (inactive) in test [17]; > 100 µM (inactive) in test [18]. For the same compound, in test [19], the GI50 was > 100 µM (inactive).

As for `CO/N=C1\CCC2(O)C3Cc4ccc(O)c5c4C2(CCN3CC2CC2)[C@H]1O5` (some centres undefined), the GI50 in test [1], in [2], in test [3], in [4], in test [5] and in test [6] was > 100 µM (inactive) throughout. Further, the GI50 in test [7], in test [10], in [20], in test [11], in test [12] and in [13] was > 100 µM (inactive) throughout. The GI50 in test [14] is > 100 µM (inactive); in [15], > 100 µM (inactive); in test [16], over 100 µM; in test [17], > 100 µM (inactive); in [18], > 100 µM (inactive); in test [19], > 100 µM (inactive).

Consider `Cc1ccc(-n2cnc(C(=N)C#N)c2N)cc1`, for which the GI50 in [1], in test [2], in [3], in test [4], in test [5] and in [6] was > 100 µM (inactive) each time. The GI50 in [7], in test [9], in test [10], in test [20], in test [11] and in [12] was > 100 µM (inactive) each time. Besides, the GI50 is > 100 µM (inactive) in [13]; > 100 µM (inactive) in test [14]; > 100 µM (inactive) in [15]; over 100 µM in test [16]; > 100 µM (inactive) in test [17]; > 100 µM (inactive) in test [18]. The GI50 in [19] was > 100 µM (inactive).

In the case of `COc1ccc(C(=O)C#Cc2cn(C3CC(O)C(CO)O3)c(=O)[nH]c2=O)cc1` (centres undefined), the GI50 in [1] was 33.3 µM (inactive); in test [2], > 100 µM (inactive); in test [3], 19.3 µM (inactive); in test [4] it was 10.4 µM (inactive); in test [5] it was > 100 µM (inactive); in test [6] it was 56.8 µM (inactive). Moreover, the GI50 in test [7] was > 100 µM (inactive); in [8], 52.2 µM (inactive); in test [9], > 100 µM (inactive); in [10] it was 28.4 µM (inactive); in test [11], > 100 µM (inactive); in [12] it was > 100 µM (inactive). Further, the GI50 is > 100 µM (inactive) in test [13]; 30.6 µM (inactive) in [14]; 36.5 µM (inactive) in test [15]; over 100 µM in test [16]; > 100 µM (inactive) in test [17]; > 100 µM (inactive) in test [18]. Further, the GI50 in test [19] was > 100 µM (inactive).

Regarding `O1C2C1C1OC1C1OC1C1OC21` (centres undefined), the GI50 in test [1], in test [2], in [4], in test [5], in [6] and in [7] was > 100 µM (inactive) throughout. Further, the GI50 in test [10], in test [20], in test [12], in test [13], in test [14] and in test [15] was > 100 µM (inactive) in each case. Besides, the GI50 in [16] is over 100 µM; in test [17] it was > 100 µM (inactive); in [19], > 100 µM (inactive).

Consider `CSC1=N/C(=C\c2ccc(C)cc2)C(=O)N1CN1CCOCC1`, for which the GI50 in test [1] was 42.7 µM (inactive); in test [2], > 100 µM (inactive); in test [4], > 100 µM (inactive); in test [5] it was 35.4 µM (inactive); in [6] it was 99.8 µM (inactive); in [7], 47.4 µM (inactive). The GI50 in [10] is 55.8 µM (inactive); in [20], 69.3 µM (inactive); in test [11] it was 23.7 µM (inactive); in [12] it was > 100 µM (inactive); in [13], > 100 µM (inactive); in test [14] it was 84.9 µM (inactive). The GI50 in [15] is 34.3 µM (inactive); in test [16] it was 34.1 µM; in test [17] it was 92.7 µM (inactive); in test [18] it was 28.2 µM (inactive); in test [19], 91.8 µM (inactive).

Regarding `O[C@@H]1C[C@H]2N3CC[C@@]2(c2cc4c(cc2C3)OCO4)[C@H]2O[C@@H]12`, the GI50 in test [1] is < 0.01 µM (active); in test [2] it was > 100 µM (inactive); in [3], 0.0178 µM (active); in [4], > 100 µM (inactive); in test [5], > 100 µM (inactive); in [6] it was > 100 µM (inactive). The GI50 in test [7] is > 100 µM (inactive); in test [8], > 100 µM (inactive); in [9] it was > 100 µM (inactive); in [10], < 0.01 µM (active); in [11], > 100 µM (inactive); in test [12] it was > 100 µM (inactive). Besides, the GI50 in test [13] is > 100 µM (inactive); in test [14], > 100 µM (inactive); in test [15], > 100 µM (inactive); in test [16], over 100 µM; in test [17] it was > 100 µM (inactive); in [18], > 100 µM (inactive). The GI50 in [19] is > 100 µM (inactive).

For `S=C1CC(c2ccccc2)Sc2ccccc2N1` (centres undefined), the GI50 in test [1] is > 100 µM (inactive); in test [2], 45.2 µM (inactive); in [4], 67.1 µM (inactive); in [5], 69 µM (inactive); in [6] it was 61.1 µM (inactive); in test [7], 72.8 µM (inactive). Also, the GI50 in test [8] was 28.4 µM (inactive); in test [10], 66.8 µM (inactive); in [20], > 100 µM (inactive); in test [11], > 100 µM (inactive); in test [12], > 100 µM (inactive); in [13], 41.6 µM (inactive). The GI50 in test [14] was 25.5 µM (inactive); in test [15] it was > 100 µM (inactive); in [16], 93.3 µM; in [17], 81.8 µM (inactive); in test [18], > 100 µM (inactive); in test [19] it was 95.3 µM (inactive).

`COc1cc(C2SCC(=O)N2c2ccc(NC(C)=O)cc2)cc(OC)c1OC` (centres undefined): the GI50 in test [1] was > 100 µM (inactive); in test [2], > 100 µM (inactive); in test [3], > 100 µM (inactive); in test [5], > 100 µM (inactive); in test [6] it was 52.7 µM (inactive); in [7], > 100 µM (inactive). Further, the GI50 in [9] was > 100 µM (inactive); in [10], > 100 µM (inactive); in test [20], 31.2 µM (inactive); in test [11] it was > 100 µM (inactive); in test [12], > 100 µM (inactive); in test [13] it was > 100 µM (inactive). Moreover, the GI50 in test [14] is > 100 µM (inactive); in [15], > 100 µM (inactive); in test [16] it was 94.2 µM; in [17], > 100 µM (inactive); in test [18] it was > 100 µM (inactive); in [19] it was > 100 µM (inactive).

The values above are taken from ChEMBL document CHEMBL1201862, “PubChem BioAssay data set” (2004).
